In series [1] the test system is Streptococcus gordonii. Description: Antibacterial effect against Streptococcus gordonii, growth by change of optical density. Format: cell-based. The conditions noted are these: 5 mg in 6 well plates, 0 h vs 24 h, starting density 1.8; P/S 4%. The protocol: The microparticles loaded with totarol were then tested for their antibacterial effect against Streptococcus gordonii (S.G.). For this purpose, 5 mg of totarol-loaded microparticles were given into 6 well plates and covered with a solution of S.G. For comparison, 5 mg of unloaded microparticles, 5 mg of free totarol, pure medium (Schaedler Medium of the company BD), medium with S.G. and medium with S.G. and 4% P/S (penicillin streptomycin) as positive control were measured. By means of the change of the optical density the growth of S.G. was determined. The starting density of S.G. was 1.8. In FIG. 3 the measured results at zero hour (left columns) and after 24 hours (right columns) is shown.

The subject of series [2] is Staphylococcus aureus. Description: Growth of S. aureus in suspension, optical density at 600 nm. The format is cell-based. The conditions noted are these: dissolved in ethyl acetate, 6 hours of incubation. As for the experimental part: The antibacterial effect on Staphylococcus aureus (S. aureus) of totarol and the microparticles loaded with totarol was tested in vitro in a further experiment. It was shown that a concentration of 0.1 mg/ml of totarol dissolved in ethyl acetate (EtAc) was sufficient to inhibit the growth of S. aureus in suspension after 6 hours of incubation.

For series [3], the system named is Staphylococcus aureus. The series can be described thus: S. aureus seeded onto agar plates, inhibition zone. The conditions noted are these: 1 mg pure totarol or 10 mg microparticles loaded with about 1 mg totarol, 24 hours at 37° C. The format is cell-based. As for the experimental part:
In further experiments the S. aureus bacteria were seeded onto agar plates and treated with 1 mg of pure totarol, 10 mg of unloaded microparticles, and 10 mg of microparticles loaded with about 1 mg of totarol.

For series [4], the system named is Staphylococcus aureus. The series can be described thus: Soaked filter paper on agar plates with S. aureus, inhibition zone. Format: cell-based. The settings on record: 24 hours at 37° C., compared with EtAc control. The protocol: The experiment was repeated with filter paper which was soaked with pure totarol, with microparticles loaded with totarol and with EtAc, and which was incubated on agar plates, onto which S. aureus was cultivated.

Series [5] relates to fresh human whole blood. The series can be described thus: Hemocompatibility in whole blood according to ISO 10993-4. Format: cell-based. The settings on record: 1 hour. As for the experimental part: Finally in vitro tests were performed where totarol and microparticles loaded with totarol were brought into contact with whole blood. The effect on erythrozytes, platelets, leucozytes as well as the complement and coagulation cascade was examined.
The measurements were made according ISO 10993-4, in determining various markers with a central importance within the hemostatic system.
Shown are the means values and standard deviations (n=3).
Shown are the mean values and standard deviations (n=3).

Series [6] deals with multi-resistant Staphylococcus aureus (MRSA). The conditions noted are these: cited from earlier work.
Series [7] relates to bacteria. The conditions noted are these: in vitro; cited from earlier work.
The subject of series [8] is human cells. The conditions noted are these: cited from earlier work.

Each structure is given as a SMILES string.

For `CC(C)c1c(O)ccc2c1CC[C@H]1C(C)(C)CCC[C@]21C` [totarol, (4bS,8aS)-4b,8,8-Trimethyl-1-propan-2-yl-5,6,7,8a,9,10-hexahydrophenanthren-2-ol], the “reduction of the bacterial concentration (growth of S.G. by optical density)” value in series [1] is on record as “stronger reduction of the bacterial concentration than totarol-loaded microparticles”. Moreover, the “concentration sufficient to inhibit the growth of S. aureus in suspension” value in series [2] turned out to be 0.1 mg/mL. Besides, the “inhibition zone on agar plates” value in series [3] was “clear inhibition zone”. In addition, in series [4], the “inhibition zone around the filter paper” value is reported as “clear inhibition zone”. Besides, the “effects on the hemostatic system” value in series [5] (0.1 mg/ml totarol, 1 mg/ml totarol MP, vs control and unloaded microparticles) is “neither totarol nor the microparticles loaded with totarol have negative effects”. For the same compound, the hemocompatibility result in series [5] (blood contact) is given as “good hemocompatibility”. Moreover, in series [6], the “effectiveness against MRSA” value is listed as “effective”. The “minimum concentration where totarol still has an antibacterial effect” value in series [7] was 2 µg/mL. For the same compound, the “concentration at which toxic and inhibits the growth of human cells” value in series [8] is reported as “more than 5 μg/ml”.

The values are drawn from US20160157483A1, “COMPOSITION FOR THE CLEANING AND PROTECTION OF TECHNICAL SURFACES” (aimecs GmbH, priority 2013, published 2016).
